Source: patent US20220251085A1, “CYSTEINE BINDING COMPOSITIONS AND METHODS OF USE THEREOF” (University of Virginia Patent Foundation, priority 2019, published 2022)

Columns and labels:
C57Bl/6 mice = assay: In vivo activity of purine probes in mouse tissues, gel-based; settings: for time of peak / most robust labeling in vivo: 20 mg/kg probe
Experimental: Mouse Treatment and Tissue Preparation Methods: 8-12 week old male and female C57Bl/6 mice were treated intraperitoneally (IP) or by oral gavage (OG) with either AHL125 (Pu-1 or AHL-Pu-1), AHL128 (Pu-2 or AHL-Pu-2), or vehicle (18:1:2, PBS:PEG40:DMSO) at 20 mg/kg unless stated otherwise. Treatment time is indicated in the experiment below. Mice were then euthanized and perfused using PBS. Tissues were then harvested, rinsed and flash frozen using liquid nitrogen and stored at −80° C. until further use. Tissues were lysed using dounce homgenization in the presence of PBS+protease inhibitor. Initial suspensions were centrifuged at 3000×g for 5 minutes to remove insoluble material. The lysate was collected and centrifuged again at 100,000×g for 45 minutes to obtain the soluble fraction. Purine probe modified proteins from treated mice were conjugated to rhodamine-azide by CuAAC, subjected to SDS-PAGE analysis, and detected by in-gel fluorescence scanning. SDS-PAGE gels were stained with Coomassie brilliant blue to determine protein load. All samples were loaded with equivalent amounts of protein. Thus, changes in purine probe labeling is not due to loading of different proteome amounts.
Mice were also treated with 80 mg/kg oral gavage (OG) to determine whether purine probes are orally bioavailable. Mice were treated for four hours.

[1] = tested on: proteomes of DM93, Hela, A549, HEK293T, and Jurkat cells; assay: Quantitative chemical proteomics (LC-MS) of Pu-1 and Pu-2 modified proteins; type: cell-based, HUMAN
Experimental: Cells were grown at 37° C. in 5% CO2 until 90% confluent. Once confluent cells were washed with serum free media and treated with purine probes (Pu-1, Pu-2) at a final concentration of 25 μM for 4 hours. Cells were then scraped and washed 3× with cold PBS and lysed in PBS+protease inhibitor. Lysates were spun at 100,000×g for 45 minutes. Purine probe-modified proteins in soluble fractions were coupled to desthiobiotin-azide using copper-catalyzed azide-alkyne cycloaddition (CuAAC; 1 hour, room temperature), probe-modified proteins digested into peptides using trypsin protease, probe-modified peptides enriched by avidin affinity chromatography, and subjected to LC-MS quantitative chemical proteomics as previously described.^15 The following cell lines were used for analysis: DM93, Hela, A549, HEK293T, and Jurkat. […]
Chemical proteomics performed as described in Example 9 determined several protein modification sites targeted by Pu-1 and/or Pu-2. […]

| SMILES | time of peak / most robust labeling in vivo (C57Bl/6 mice) [h] | Number of Unique Modified Residues ([1]; Arginine (R)) | Percentage of Modified Residues ([1]; Arginine (R)) [%] | Number of Unique Modified Residues ([1]; Asparagine (N)) | Percentage of Modified Residues ([1]; Asparagine (N)) [%] | Number of Unique Modified Residues ([1]; Aspartic Acid (D)) | Percentage of Modified Residues ([1]; Aspartic Acid (D)) [%] | Number of Unique Modified Residues ([1]; Cysteine (C), Byonic score>300) | Percentage of Modified Residues ([1]; Cysteine (C), Byonic score>300) [%] | Number of Unique Modified Residues ([1]; Glutamic Acid (E)) | Percentage of Modified Residues ([1]; Glutamic Acid (E)) [%] | Number of Unique Modified Residues ([1]; Glutamine (Q)) | Percentage of Modified Residues ([1]; Glutamine (Q)) [%] | Number of Unique Modified Residues ([1]; Histidine (H)) | Percentage of Modified Residues ([1]; Histidine (H)) [%] | Number of Unique Modified Residues ([1]; Lysine (K)) | Percentage of Modified Residues ([1]; Lysine (K)) [%] | Number of Unique Modified Residues ([1]; Methionine (M)) | Percentage of Modified Residues ([1]; Methionine (M)) [%] | Number of Unique Modified Residues ([1]; Serine (S)) | also measured |
| --- | --- | --- | --- | --- | --- | --- | --- | --- | --- | --- | --- | --- | --- | --- | --- | --- | --- | --- | --- | --- | --- |
| C#CCn1cnc2nc(Cl)nc(Cl)c21 [Pu-1, 2,6-Dichloro-7-(prop-2-yn-1-yl)-7H-purine] | 2 | 2 | 0.84 | 0 | 0 | 9 | 3.8 | 196 | 82 | 12 | 5.0 | 3 | 1.3 | 1 | 0.42 | 4 | 1.7 | 2 | 0.84 | 1 | tissue with highest activity (C57Bl/6 mice): highest activity in lung; labeling profile in vivo across tissues (C57Bl/6 mice; IP or OG, lung, liver, spleen, heart, brain, kidney, WAT): most robust labeling profile in vivo; Percentage of Modified Residues ([1]; Serine (S)): 0.42%; Number of Unique Modified Residues ([1]; Threonine (T)): 2; Percentage of Modified Residues ([1]; Threonine (T)): 0.84%; Number of Unique Modified Residues ([1]; Tryptophan (W)): 1; Percentage of Modified Residues ([1]; Tryptophan (W)): 0.42%; Number of Unique Modified Residues ([1]; Tyrosine (Y)): 6; Percentage of Modified Residues ([1]; Tyrosine (Y)): 2.5% |
| C#CCn1cnc2c(Cl)nc(Cl)nc21 [Pu-2, 2,6-Dichloro-9-(prop-2-yn-1-yl)-9H-purine] | 4 | 19 | 1.6 | 0 | 0 | 44 | 3.7 | 952 | 80 | 68 | 5.7 | 39 | 3.3 | 12 | 1.0 | 24 | 2.0 | 7 | 0.59 | 5 | Percentage of Modified Residues ([1]; Serine (S)): 0.42%; Number of Unique Modified Residues ([1]; Threonine (T)): 6; Percentage of Modified Residues ([1]; Threonine (T)): 0.50%; Number of Unique Modified Residues ([1]; Tryptophan (W)): 3; Percentage of Modified Residues ([1]; Tryptophan (W)): 0.25%; Number of Unique Modified Residues ([1]; Tyrosine (Y)): 17; Percentage of Modified Residues ([1]; Tyrosine (Y)): 21.4% |
